Experiment [1] relates to H460 non-small cell lung cancer cell line. As to the kind of experiment: cell viability (proliferation) assay, Trypan blue exclusion counting, H460. Format: cell-based. The conditions noted are these: H460 cells, compound @ 1 μM, 72 hours, vs 1% DMSO control. The procedure: (§1) Anti-oncogenic effects of the compounds of the present invention were evaluated by cell viability (proliferation) assays in H460 non-small cell lung cancer cell line and A549 human lung carcinoma cell line. H460 and A549 were purchased from ATCC (American Type Culture Collection), and they were maintained in RPMI 1640 and DMEM, respectively, with 10% fetal bovine serum. Cell lines were cultured in an incubator with 5% CO2 at 37° C.
(§2) Cells were seeded in 6-well-plates (10^5 cells/ml medium per well) and allowed them to grow for 24 hrs in the incubator. Cells were then treated with 1 μM of tested compounds. Cells treated with 1% DMSO were used as control. 72 hours after treatment, cells were removed by trypsinization and viable cell number was obtained by counting Trypan blue-excluding cells under microscope with a hemocytometer. Experiments were performed in triplicate. Statistical were carried out by analysis of variance (ANOVA) and LSD test for multiple comparisons, with p<0.05 considered significant.

Experiment [2] has as its system A549 human lung carcinoma cell line. As to the kind of experiment: cell viability (proliferation) assay, Trypan blue exclusion counting, A549. The format is cell-based. The conditions noted are these: A549 cells, compound @ 1 μM, 72 hours, vs 1% DMSO control. As to the method: as §1, §2

For the compound `COC1=CC(c2cc3ccccc3[nH]2)=N/C1=C\c1[nH]c(C)cc1C` [Obatoclax], the figures for the “Cell Death (%) after 3-day treatment” value in experiment [1] and in experiment [2] were 88.3% and 76.6%, respectively.
`COC1=CC(c2cc3sc(Cl)cc3[nH]2)=N/C1=C\c1[nH]c(C)cc1C` [Example 2, (Z)-2-chloro-5-(2-((3,5-dimethyl-1H-pyrrol-2-yl)methylene)-3-methoxy-2H-pyrrol-5-yl)-4H-thieno[3,2-b]pyrrole]: the “Cell Death (%) after 3-day treatment” value in experiment [1] is listed as 88.6%; in experiment [2], 86.7%.
